In article PMC4526861, “Inhibition of protein kinase C by isojacareubin suppresses hepatocellular carcinoma metastasis and induces apoptosis in vitro and in vivo” (Scientific Reports, 2015):

What was measured:
SMMC-7721 cells = assay: Cell proliferation assay (CCK-8), SMMC-7721; type: cell-based, human; details: Homo sapiens, SMMC-7721; mean ± SD, at least three independent experiments
Experimental: (§1) The human HCC cell lines QGY-7703, SMMC-7721 and HepG2 and the liver cell line QSG-7701 were supplied by the Cell Resource Center, Institute of Life Sciences, Chinese Academy of Medical Science. QGY-7703, SMMC-7721 and QSG-7701 cells were cultured in 1640 medium (Gibco), and HepG2 cells were cultured in DMEM medium (Gibco) at 37 °C in moist air supplemented with 5% CO2. All media were supplemented with 10% fetal bovine serum (FBS) and 100 Units/mL of penicillin/streptomycin.
(§2) The cell viability assay was performed as previously reported using a Cell Counting Kit-8 (CCK-8; Dojindo, Kumamoto, Japan)[33][34]. The relative cell viability was presented as % inhibition and calculated using the following formula: […]

QSG-7701 hepatocytes = assay: Cell proliferation assay (CCK-8), QSG-7701 hepatocytes; type: cell-based, human; details: Homo sapiens, QSG7701; nonmalignant hepatocytes; mean ± SD
Experimental: as §1, §2

QGY-7703 cells = assay: Cell proliferation assay (CCK-8), QGY-7703; type: cell-based, human; details: for IC50: Homo sapiens, QGY-7703, mean ± SD, at least three independent experiments; for Inhibitory Ratio (%) QGY-7703: 50 μM
Experimental: as §1, §2

HepG2 cells [1] = assay: Cell proliferation assay (CCK-8), HepG2; type: cell-based, human; details: for IC50: Homo sapiens, HepG2, mean ± SD, at least three independent experiments; for Inhibitory Ratio (%) HepG2: 50 μM
Experimental: as §1, §2

HepG2 cells [2] = assay: Matrigel invasion assay; type: cell-based, human; details: Homo sapiens, HepG2, 24 h, read-out: inhibition of invasiveness compared to control
Experimental: (§3) Cell migration and invasion potencies were studied using wound healing and Matrigel invasion assays. The wound healing assay was performed by scratching the cell surface with a 10 μL pipette tip. Then, the cells were treated with compound 7 and ISJ (10 μM) and incubated for 24 h before being photographed under a microscope (DMI3000 B, Leica). Wound closure was evaluated using ImageJ software. Invasion through a Matrigel-coated filter was measured in transwell chambers (Corning Costa) as described previously, with minor modifications. Briefly, HepG2 Cells (2 × 10^5/well) were suspended in serum-free medium and added to the upper chamber of the Matrigel plate. FBS (10%) was used as the chemoattractant in the lower chamber. After incubation for 24 h, the non-invading cells were removed from the upper surface of the insert membrane with a cotton swab. The invading cells were fixed with methanol and stained with Giemsa (Sigma). Cells in five randomly selected fields were photographed, and the numbers of cells that crossed the membrane were counted.

[3] = tested on: c-PARP, c-Cas3 and c-Cas9 in xenograft tumors; assay: Histology, IHC and immunoblot of xenograft tumors; type: in vivo, BALB/c-nu nude mice; details: 5 mg/kg
Experimental: (§4) The total membrane and cytosolic proteins were extracted using a Membrane and Cytosol Protein Extraction Kit (Beyotime). Extracted proteins from cells or animal tissues were separated by SDS-PAGE and transferred to polyvinylidene difluoride (PVDF) membranes (Bio-Rad). The PVDF membranes were blocked with 5% nonfat milk and incubated with primary antibodies overnight, followed by incubation with a donkey anti-rabbit or anti-mouse secondary antibody (IRDye 800, LI-COR, Biosciences). The images were captured using the Odyssey Infrared Imaging System (LI-COR, Biosciences), according to the manufacturer's instructions. The intensity was quantitative with Quantity One software (Bio-Rad). To ensure equal protein loading, each membrane was stripped and reprobed with an anti-β-actin antibody. All experiments were repeated independently no less than three times.
To further confirm the antitumor activities of compound 7 and ISJ in vivo, histological analysis was performed on the hepatoma xenografts. Briefly, the samples were fixed in a 10% formalin solution, processed, embedded, sectioned and either H&E stained to reveal tumor tissue necrosis or IHC stained using antibodies against c-PARP, c-Cas3 or c-Cas9. The H&E and IHC images were obtained on a Leica DMI3000 B phase-contrast microscopy. The immunoreactive areas in the IHC images were quantified using ImagePro Plus 6.0 software (Media Cybernetics, Silver Spring, MD). The integrated optical density (IOD) values were represented as the mean ± SEM.

PKC = PKC activity assay (PepTag non-radioactive, HepG2 lysates); type: biochemical, human; details: 3 h
Experimental: The activity of PKC in HepG2 cells was assessed 3 h after the addition of compound 7 or ISJ by measuring the phosphorylation of a PKC-specific target peptide. Compared to the basal control (in the absence of any compound), PKC activity was inhibited by compound 7 and ISJ.
Figure 3 Effects of compound 7 and ISJ on PKC activity in HepG2 cells. The proteins from lysed HepG2 cells were prepared and measured for their ability to phosphorylate a PKC-specific peptide substrate (PLSRTLSVAAK) in a non-radioactive assay. (a) Lanes 1 and 2 show the negative (water only) and positive controls (with 20 ng purified PKC). Supernatants from HepG2 cells were subjected to the PKC activity assay in the absence (basal control, lane 3) or presence (lanes 4–7) of the compounds. Compound 7 (lanes 4 and 5) and ISJ (lanes 6 and 7) were added separately at 10 and 5 μM. (b) Quantification of (a); *P < 0.05 versus the basal control. Data are shown as the mean ± SD of three independent experiments.
The PKC activity assay was carried out as previously reported, according to the instructions of the PepTag non-radioactive PKC assay kit (Promega)[60]. The bands were photographed using the Syngene GBOX-iCHEMI-XR system, and the phosphorylated bands were cut out for quantification measurement at 570 nm.

HepG2 xenografts = assay: Antitumor activity in vivo, HepG2 xenograft; set-up: species or system BALB/c-nu nude mice; details: 5 mg/kg, tail vein injection every other day for two weeks
Experimental: Four-week-old male BALB/c-nu nude mice (15–20 g) were obtained from the Shanghai SLAC Laboratory Animal Co., Ltd. (Shanghai, China). The animals were maintained under specific pathogen-free conditions with food and water supplied ad libitum in the Laboratory Animal Center of the Second Military Medical University. All animal experiments were carried out in accordance with the Guide for the Care and Use of Laboratory Animals of the National Institutes of Health and were approved by the Committee on the Ethics of Animal Experiments of the Second Military Medical University, China.
(§5) HepG2 cells were harvested and resuspended in PBS. A total of 5 × 10^6 cells were subcutaneously injected into the right flank. Tumor volume was calculated using the following formula: V = (L × W^2)/2, where L is the length and W is the width of the tumor nodules measured with vernier calipers. Once the volume of the tumors reached 75–100 mm^3, the mice were randomly divided into three groups (n = 5). The mice were treated every other day for two weeks with tail vein injections of either vehicle (5% ethanol and 2.5% polyethylene glycol in saline), compound 7, or ISJ (5 mg/kg in the vehicle). Body weights were measured before each drug injection. After the 15th day, the mice were euthanized, and the tumors were isolated, weighed and photographed.

[4] = Body weight in xenograft study; type: in vivo, BALB/c-nu nude mice; details: 5 mg/kg, tail vein, two weeks
Experimental: as §5

PKCζ = assay: Western blot of PKC isoform expression in cytosol and membrane; type: cell-based, human; details: HepG2, 24 h incubation
Experimental: To further determine whether compound 7 and ISJ represent potential candidates for selective PKC expression inhibitors against hepatoma, the expression of PKC isoforms in HepG2 cells was characterized by western blotting. After 24 h of incubation with GFX, GO, ISJ and compound 7 at the indicated concentrations, PKC proteins from the cytosol and membrane of HepG2 cells were evaluated. ISJ and compound 7 treatments reduced both the cytosol and cell membrane expression of PKCζ.
as §4

HepG2 cells [5] = assay: Wound healing (migration) assay; type: cell-based, human; details: 10 μM, 24 h
Experimental: as §3

HepG2 cells [6] = assay: Apoptosis assay, Annexin V-FITC/PI flow cytometry; type: cell-based, human; details: 48 h
Experimental: To further explore the potential mechanisms of the antiproliferative effects induced by compound 7 and ISJ, Annexin V-FITC/PI double staining was performed to quantify cellular apoptosis by flow cytometry. HepG2 cells were cultured for 48 h in the absence or presence of compound 7 or ISJ at different concentrations (5 or 15 μM).
HepG2 cells were seeded in six-well plates (5 × 10^5 cells/mL) for 24 h and then treated with various amounts of the compounds or 1% DMSO (as control). After 48 h, the cells floating in the medium were collected, and the adherent cells were detached with 0.05% trypsin, washed twice with cold PBS, and centrifuged at 1000 rpm for 5 min at 4 °C. Subsequently, HepG2 cells were gently resuspended in the binding buffer. Thereafter, the cells were stained using the Annexin V-FITC/PI apoptosis detection kit (BD Biosciences, San Jose, CA, USA). After incubation at room temperature for 15 min in the dark, the apoptotic cells were immediately analyzed by flow cytometry (FACS Calibur).

advanced HCC = tested on: advanced HCC; set-up: method as in PMID 18650514; details: patients with advanced HCC; cited from earlier work

Compound | Inhibitory Ratio (%) QGY-7703 (QGY-7703 cells) [%] | Inhibitory Ratio (%) HepG2 (HepG2 cells [1]) [%] | also measured
O=c1[nH]cc(F)c(=O)[nH]1 [5-Fu, 5-Fluorouracil, reference compound] | – | – | IC50 (SMMC-7721 cells): 14.6 ± 0.36 µM; IC50 (QSG-7701 hepatocytes): 0.6 ± 0.03 µM; IC50 (QGY-7703 cells): 15.66 ± 0.07 µM; IC50 (HepG2 cells [1]): 12.48 ± 0.11 µM
COc1cc(OC)c2c(=O)c3ccc(OC)c(OC)c3oc2c1 [compound 5] | 20.81 | 22.61 | melting point: 138 to 140 °C
O=c1c2ccc(O)c(O)c2oc2cc(O)cc(O)c12 [compound 6] | −0.66 | 13.80 | –
O=c1c2ccc3c(c2oc2cc(O)cc(O)c12)OC(c1ccccc1)(c1ccccc1)O3 [compound 7, 7,9-dihydroxy-2,2-diphenyl-6H-[1,3]dioxolane[4,5-c]xanthen-6h-one] | 79.93 | 90.99 | inhibition at 10 µM (HepG2 cells [2]): 69%; H&E staining of xenograft tumors [3]: significant tissue death; IHC c-PARP, c-Cas3 and c-Cas9 levels in tumors [3]: upregulated expression; immunoblot c-PARP, c-Cas3 and c-Cas9 levels in tumor tissue [3]: increased; inhibition of PKC activity compared to the basal control (PKC; 5 μM): 40.9%; inhibition of PKC activity compared to the basal control (PKC; 10 μM): 54.1%; reduction of tumor weight compared to controls (HepG2 xenografts): 49.4%; IC50 (SMMC-7721 cells): 6.35 ± 0.42 µM; change in body weight compared to vehicle-treated controls [4]: no significant change; PKCζ expression in cytosol and cell membrane (PKCζ): reduced; IC50 (QSG-7701 hepatocytes): 53.51 ± 0.13 µM; IC50 (QGY-7703 cells): 9.88 ± 0.18 µM; decrease of HepG2 cell migration compared to control (HepG2 cells [5]): 76.4%; number of apoptotic cells compared to the control group (HepG2 cells [6]; 5 μM): did not alter; percentage of apoptotic cells (HepG2 cells [6]; 15 μM): increased significantly; IC50 (HepG2 cells [1]): 7.34 ± 0.09 µM
C#CC(C)(C)Oc1cc(O)c2c(=O)c3ccc4c(c3oc2c1)OC(c1ccccc1)(c1ccccc1)O4 [compound 8] | −9.85 | 6.88 | –
C#CC(C)(C)Oc1cc(OS(=O)(=O)c2ccc(C)cc2)c2c(=O)c3ccc4c(c3oc2c1)OC(c1ccccc1)(c1ccccc1)O4 [compound 9] | −3.98 | 12.46 | –
Cc1ccc(S(=O)(=O)Oc2cc3c(c4oc5c6c(ccc5c(=O)c24)OC(c2ccccc2)(c2ccccc2)O6)C=CC(C)(C)O3)cc1 [compound 10] | 0.66 | 18.01 | –
Cc1ccc(S(=O)(=O)Oc2cc3c(c4oc5c(O)c(O)ccc5c(=O)c24)C=CC(C)(C)O3)cc1 [compound 11] | 21.44 | 45.36 | –
COc1ccc2c(=O)c3c(OC)cc(OC)c(C=O)c3oc2c1OC [compound 12] | 20.97 | 26.12 | –
CCOC(=O)/C=C/c1c(OC)cc(OC)c2c(=O)c3ccc(OC)c(OC)c3oc12 [compound 13] | 16.17 | 47.29 | –
CCOC(=O)[C@@H](O)[C@H](O)c1c(OC)cc(OC)c2c(=O)c3ccc(OC)c(OC)c3oc12 [compound 14] | 13.15 | 25.40 | –
COc1ccc2c(=O)c3c(OC)cc(OC)c(I)c3oc2c1OC [compound 15] | −1.75 | 24.07 | –
COc1ccc2c(=O)c3c(OC)cc(OC)c(/C=C/C(C)(C)O)c3oc2c1OC [compound 16] | 13.26 | 15.95 | –
CNC(=O)c1cc(Oc2ccc(NC(=O)Nc3ccc(Cl)c(C(F)(F)F)c3)cc2)ccn1 [sorafenib] | – | – | improvement of overall survival (advanced HCC): approximately three
